Reference: article PMC7589200, “Identification of Putative Non-Substrate-Based XT-I Inhibitors by Natural Product Library Screening” (Biomolecules, 2020)

Experiments:
[1] = system: normal human dermal fibroblasts (NHDFs); test: WST-1 cell proliferation assay; format: cell-based; details: 48 h
Procedure: Normal human dermal fibroblasts (NHDFs) from a 37- and […] were obtained commercially from Cambrex (Walkerville, United States) and Coriell (New Jersey, United States). The NHDFs were cultured in phenol red-free Dulbecco’s modified Eagle’s medium (DMEM; Thermo Fisher Scientific, Waltham, Massachusetts, United States) supplemented with 10% (v/v) FCS, 4 mM L-glutamine and 100,000 U/L penicillin, 100 mg/L Streptomycin, 0.25 mg/L amphotericin B (PAN Biotech, Aidenbach, Germany) at 37 °C, 5% CO2. The medium was changed twice a week until the cells reached 80% confluency. The NHDFs were subcultured with an expansion ratio of 1:3 using 0.05% trypsin (PAN Biotech, Aidenbach, Germany) and used until the ninth passage.
The tetrazolium salt WST-1 (Roche, Basel, Swiss) was used for the spectrophotometric quantification of cell proliferation in response to various inhibitor concentrations. The cell proliferation assay was carried out according to the manufacturer’s instructions in a 96-well tissue culture plate with 1700 cells per cavity. Based on the inhibition studies, the cells were cultured in fully supplemented DMEM for 24 h then treated with celastrol or amphotericin B for an additional 48 h. The WST-1 reagent was added to the cell culture supernatant 4 h before the end of the treatment. The absorptions at 440 and 590 nm were measured at timepoints 0, 1, 2, 3 and 4 h after the addition of WST-1.

[2] = biological target: T1, XT-I (Homo sapiens, UniProt Q86Y38); test: Cellular (extra- and intracellular) XT-I activity of NHDFs by UPLC-ESI-MS/MS XT-I assay; format: cell-based; details: for extracellular XT-I activity relative to DMSO control / intracellular XT activity compared to DMSO control: then inhibitor-free media 48 h (96 h)
T1 sequence (Q86Y38 260-959 limits assumed): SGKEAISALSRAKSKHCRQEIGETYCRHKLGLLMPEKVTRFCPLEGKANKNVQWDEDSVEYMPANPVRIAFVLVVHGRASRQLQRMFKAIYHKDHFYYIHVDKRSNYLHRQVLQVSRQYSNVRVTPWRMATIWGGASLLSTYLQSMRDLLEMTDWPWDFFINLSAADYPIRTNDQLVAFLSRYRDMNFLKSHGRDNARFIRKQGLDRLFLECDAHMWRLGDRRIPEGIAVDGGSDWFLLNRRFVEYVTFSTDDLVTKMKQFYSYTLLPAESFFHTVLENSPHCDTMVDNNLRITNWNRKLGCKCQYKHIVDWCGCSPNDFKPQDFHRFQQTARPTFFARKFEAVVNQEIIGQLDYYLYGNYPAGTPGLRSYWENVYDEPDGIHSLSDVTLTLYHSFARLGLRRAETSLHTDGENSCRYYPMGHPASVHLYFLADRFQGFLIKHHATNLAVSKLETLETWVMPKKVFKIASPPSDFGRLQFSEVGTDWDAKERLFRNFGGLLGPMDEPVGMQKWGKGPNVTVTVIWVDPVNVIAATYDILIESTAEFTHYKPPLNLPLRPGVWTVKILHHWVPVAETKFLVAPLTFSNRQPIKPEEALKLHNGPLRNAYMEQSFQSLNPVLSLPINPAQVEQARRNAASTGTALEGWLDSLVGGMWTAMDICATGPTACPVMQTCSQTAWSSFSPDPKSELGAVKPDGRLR
Text: The measurement of relative XT-I activity among different samples is based on the XT-catalyzed incorporation of xylose from UDP-D-xylose on a modified bikunin-derived peptide after a fixed reaction time. The assay was originally developed for the determination of XT activity in human- or cell-culture-derived samples [13] by ultra-performance liquid chromatography/electrospray ionization tandem mass spectrometry (UPLC/ESI-MS/MS). The UPLC/ESI-MS/MS XT assay was recently modified toward a XT-I selective activity determination in human serum and cell culture samples (unpublished data). The relative intensities of the xylosylated peptide species abundance obtained with the respective m/z ratio were directly proportional to the relative XT-I activity of the sample. The XT-I activity determined is expressed in arbitrary units and normalized to the total protein content per 1 mL sample volume in cell culture approaches. A calibrator probe with a fixed amount of recombinant XT-I enzyme was included in every UPLC-MS/MS XT-I assay for assay comparability across multiple runs. The assay reaction mixture (50 μL) contained 50% (v/v) of the respective XT-I enzyme solution and 50% (v/v) reaction buffer. The final XT-I assay contained 25 mM MES buffer (pH 6.5), 25 mM KF buffer, 5 mM MnCl2, 5 mM MgCl2, 7.0 μM modified acceptor peptide and 30 μM UDP-D-xylose. The sample preparation for UPLC/ESI-MS/MS was performed according to [13]. In brief, after sample incubation at 37 °C for 24 h, the reaction was stopped by heating at 99 °C for 10 min. After centrifugation (10,000× g, 10 min) the supernatant was diluted fivefold with UPLC water for analysis. All cell-based XT-I assays were carried out in three biological and three technical replicates per donor-derived primary cell culture, while the XT-I activity determination for screening or kinetic purposes was carried out at least in technical duplicates.
A former established cell culture model was utilized to investigate the effect of putative XT-I inhibitors on NHDFs. The inhibition studies were carried out with final inhibitor concentrations of 0.5, 1.0, 2.0 or 4.0 μM diluted in fully supplemented DMEM. In brief, unless otherwise stated, NHDFs were cultivated with a low density of 50 cells per mm^2 on a hard tissue culture substrate (100 × 20 mm dish) in fully supplemented DMEM with or without additional TGF-β1 (5 μg/L) for 24 h, promoting their transdifferentiation into proto-myofibroblasts. Thereafter, cells were treated with celastrol or amphotericin B in the presence or absence of TGF-β1 (5 μg/L) for an additional 48 h. Negative controls treated with solvent only were included for every sampling time. The final DMSO content of 0.04% (v/v) was kept constant in all inhibition experiments.
The cell culture supernatant was collected to analyze the extracellular XT-I activity, whereas the same cell culture monolayer was lysed using a fixed amount of 0.75 mL Nonidet P-40 (NP-40)-buffer (50 mM TRIS, 150 mM NaCl, 1% NP-40, pH 7.8) for the analysis of intracellular XT-I activities. After sample centrifugation (10,000× g, 10 min, 4 °C), the supernatant contained the intracellular XT-I protein. The lysates were also used for the BCA assay. The cellular XT-I activities were measured 48 h after inhibitor treatment (48 h) or an additional 48 h after inhibitor removal (96 h).

[3] = 1.0 μM with TGF-β1 (5 μg/L) 48 h
[4] = 2.0 μM with TGF-β1 (5 μg/L) 48 h

Structure (SMILES) | cell proliferation (WST-1) compared to control ([1]; 2.0 μM) | cell proliferation (WST-1) compared to control ([1]; 4.0 μM) | cell proliferation (WST-1) compared to control ([1]; 0.5 and 1.0 μM) | extracellular XT-I activity relative to untreated cells ([2]; 0.5 μM, 48 h, inhibitor still present in supernatant (Figure S3)) [fold] | extracellular XT-I activity relative to DMSO control [2, 3] [fold] | intracellular XT activity compared to DMSO control [2, 3] | intracellular XT activity ([2]; inhibitor present 48 h (Figure S3 setup, 0.5 μM)) | cell proliferation (WST-1) compared to control ([1]; 0.5 to 2.0 μM) | extracellular XT-I activity relative to DMSO control [2, 4] [fold] | intracellular XT activity compared to DMSO control [2, 4]
CC1=C(O)C(=O)C=C2C1=CC=C1[C@@]2(C)CC[C@@]2(C)[C@@H]3C[C@](C)(C(=O)O)CC[C@]3(C)CC[C@]12C [Compound 68, Celastrol] | significantly decreased cell proliferation | significantly decreased cell proliferation | did not influence cellular proliferation | 0.8 ± 0.07 | 0.9 ± 0.06 | did not result in any detectable changes | No intracellular XT activity changes were observed |  |  | 
C[C@@H]1[C@H](O)[C@@H](C)/C=C/C=C/C=C/C=C/C=C/C=C/C=C/[C@H](O[C@@H]2O[C@H](C)[C@@H](O)[C@H](N)[C@@H]2O)C[C@@H]2O[C@](O)(C[C@@H](O)C[C@@H](O)[C@H](O)CC[C@@H](O)C[C@@H](O)CC(=O)O[C@H]1C)C[C@H](O)[C@H]2C(=O)O [Compound 17, Amphotericin B] |  | reduced the proliferation of NHDFs significantly |  |  |  |  |  | did not influence cellular proliferation | 0.6 ± 0.03 | did not result in any detectable changes
